# Measurements from patent publication US11214803B2, “Modulators of YAP1 expression” (Ionis Pharmaceuticals, Inc., priority 2019, dated 2022).
# Strand notation (5' to 3'): a small letter for the sugar, then the base; units joined by * are phosphorothioate-linked, units joined directly phosphodiester-linked; [ ] holds rarer units or linkages, { } end groups; capitals alone tell only the bases. k = constrained ethyl (cEt); [5mC] = 5-methylcytosine; d = 2'-deoxy (DNA)
# System: Yap1 mRNA
# Assay: Dose-dependent inhibition of human Yap1 in A-431 cells (Example 7, 10,000 cells per well, RTS36584)
# Type: cell-based
# Conditions: free uptake
# Procedure, shortened: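 Yap1 mRNA was expressed as percent of untreated control after normalization to total RNA (RIBOGREEN), and IC50 was derived by log/linear linear regression. The read-out used primer-probe set RTS36584 roughly 48 hours after free-uptake dosing of oligonucleotides into A-431 cells (10,000 cells/well).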
# [1] = Table 57, 15.6 nM, A-431 cells 10,000 cells per well, 48 hours
# [2] = Table 57, 62.5 nM, A-431 cells 10,000 cells per well, 48 hours
# [3] = Table 57, 4000.00 nM, A-431 cells 10,000 cells per well, 48 hours
# [4] = Table 57, A-431 cells 10,000 cells per well
# [5] = 15.6 nM, A-431 cells, 10,000 cells per well, approximately 48 hours
# [6] = 62.5 nM, A-431 cells, 10,000 cells per well, approximately 48 hours
# [7] = 4000.00 nM, A-431 cells, 10,000 cells per well, approximately 48 hours
# [8] = A-431 cells, approximately 48 hours, linear regression on log/linear plot
# [9] = Table 61, 15.6 nM, A-431 cells 10,000 cells per well, 48 hours
# [10] = Table 61, 62.5 nM, A-431 cells 10,000 cells per well, 48 hours
# [11] = Table 61, 4000.00 nM, A-431 cells 10,000 cells per well, 48 hours
# [12] = Table 61, A-431 cells 10,000 cells per well
# [13] = Table 59, 15.6 nM, A-431 cells 10,000 cells per well, 48 hours
# [14] = Table 59, 62.5 nM, A-431 cells 10,000 cells per well, 48 hours
# [15] = Table 59, 4000.00 nM, A-431 cells 10,000 cells per well, 48 hours
# [16] = Table 59, A-431 cells 10,000 cells per well
# [17] = Table 60, 15.6 nM, A-431 cells 10,000 cells per well, 48 hours
# [18] = Table 60, 62.5 nM, A-431 cells 10,000 cells per well, 48 hours
# [19] = Table 60, 4000.00 nM, A-431 cells 10,000 cells per well, 48 hours
# [20] = Table 60, A-431 cells 10,000 cells per well
substance,measurement,setting,value
958547 (k[5mC]*kA*k[5mC]*dA*dT*dA*d[5mC]*dT*d[5mC]*dT*dA*dG*dT*kT*kA*k[5mC]; antisense) [compound 958547],"Yap1 mRNA, % UTC","Table 58, 15.6 nM, A-431 cells 10,000 cells per well, 48 hours",98 % UTC
same,"Yap1 mRNA, % UTC","Table 58, 62.5 nM, A-431 cells 10,000 cells per well, 48 hours",74 % UTC
same,"Yap1 mRNA, % UTC","Table 58, 4000.00 nM, A-431 cells 10,000 cells per well, 48 hours",22 % UTC
same,IC50,"Table 58, A-431 cells 10,000 cells per well",200 nM
958686 (k[5mC]*kG*k[5mC]*dA*dA*dT*dA*dT*dA*dG*dT*d[5mC]*dT*kA*kT*kA; antisense) [compound 958686],"Yap1 mRNA, % UTC",[1],75 % UTC
same,"Yap1 mRNA, % UTC",[2],69 % UTC
same,"Yap1 mRNA, % UTC",[3],18 % UTC
same,IC50,[4],100 nM
958785 (kG*k[5mC]*kA*dA*dT*d[5mC]*d[5mC]*dA*d[5mC]*dA*dA*dT*dT*k[5mC]*k[5mC]*kA; antisense) [compound 958785],"Yap1 mRNA, % UTC",[5],78 % UTC
same,"Yap1 mRNA, % UTC",[6],52 % UTC
same,"Yap1 mRNA, % UTC",[7],6 % UTC
same,IC50,[8],100 nM
958529 (k[5mC]*kA*kA*dG*dT*d[5mC]*dT*dT*dG*dT*dA*dA*dG*kT*kA*kA; antisense) [compound 958529],"Yap1 mRNA, % UTC",[9],103 % UTC
same,"Yap1 mRNA, % UTC",[10],64 % UTC
same,"Yap1 mRNA, % UTC",[11],11 % UTC
same,IC50,[12],100 nM
958556 (k[5mC]*kA*kA*d[5mC]*d[5mC]*dA*dA*d[5mC]*dT*dA*dT*dT*dA*k[5mC]*kT*kT; antisense) [compound 958556],"Yap1 mRNA, % UTC",[1],103 % UTC
same,"Yap1 mRNA, % UTC",[2],95 % UTC
same,"Yap1 mRNA, % UTC",[3],34 % UTC
same,IC50,[4],500 nM
958573 (kG*kG*k[5mC]*dA*dA*dA*dT*dT*dA*dT*dA*dG*dG*k[5mC]*kA*k[5mC]; antisense) [compound 958573],"Yap1 mRNA, % UTC",[13],81 % UTC
same,"Yap1 mRNA, % UTC",[14],56 % UTC
same,"Yap1 mRNA, % UTC",[15],8 % UTC
same,IC50,[16],100 nM
958588 (kG*kT*kG*dT*dA*d[5mC]*dT*dT*dA*dG*dG*dT*dG*kA*k[5mC]*kT; antisense) [compound 958588],"Yap1 mRNA, % UTC",[17],93 % UTC
same,"Yap1 mRNA, % UTC",[18],73 % UTC
same,"Yap1 mRNA, % UTC",[19],27 % UTC
same,IC50,[20],200 nM
958644 (kA*kT*kG*dA*dT*d[5mC]*dA*dA*dA*d[5mC]*d[5mC]*dT*dT*kT*kT*k[5mC]; antisense) [compound 958644],"Yap1 mRNA, % UTC",[9],97 % UTC
same,"Yap1 mRNA, % UTC",[10],85 % UTC
same,"Yap1 mRNA, % UTC",[11],24 % UTC
same,IC50,[12],300 nM
958525 (kA*kT*kG*dA*dA*dG*dG*dT*dA*dA*dA*d[5mC]*d[5mC]*kA*k[5mC]*kT; antisense) [compound 958525],"Yap1 mRNA, % UTC",[5],94 % UTC
same,"Yap1 mRNA, % UTC",[6],57 % UTC
same,"Yap1 mRNA, % UTC",[7],8 % UTC
same,IC50,[8],100 nM
958474 (kG*kT*kG*dT*d[5mC]*dT*d[5mC]*d[5mC]*dT*dT*dA*dG*dA*kT*k[5mC]*k[5mC]; antisense) [compound 958474],"Yap1 mRNA, % UTC",[9],63 % UTC
same,"Yap1 mRNA, % UTC",[10],37 % UTC
same,"Yap1 mRNA, % UTC",[11],11 % UTC
same,IC50,[12],30 nM
958568 (kT*kA*kT*dG*dA*dG*dT*dG*dA*dT*d[5mC]*dA*dA*k[5mC]*k[5mC]*kT; antisense) [compound 958568],"Yap1 mRNA, % UTC",[17],88 % UTC
same,"Yap1 mRNA, % UTC",[18],65 % UTC
same,"Yap1 mRNA, % UTC",[19],21 % UTC
same,IC50,[20],100 nM
958623 (kT*kT*kG*dA*dT*dA*dT*dT*d[5mC]*d[5mC]*dG*d[5mC]*dA*kT*kT*kG; antisense) [compound 958623],"Yap1 mRNA, % UTC",[13],100 % UTC
same,"Yap1 mRNA, % UTC",[14],62 % UTC
same,"Yap1 mRNA, % UTC",[15],10 % UTC
same,IC50,[16],100 nM
958668 (kG*kT*kG*dA*dT*d[5mC]*dT*dG*dT*dG*dA*dG*dA*kG*kG*kT; antisense) [compound 958668],"Yap1 mRNA, % UTC",[13],81 % UTC
same,"Yap1 mRNA, % UTC",[14],38 % UTC
same,"Yap1 mRNA, % UTC",[15],5 % UTC
same,IC50,[16],100 nM
958369 (antisense kT*kT*kA*dT*d[5mC]*dT*dA*dG*d[5mC]*dT*dT*dG*dG*kT*kG*kG) [compound 958369],"Yap1 mRNA, % UTC","Table 56, 15.6 nM, A-431 cells 10,000 cells per well, 48 hours",107 % UTC
same,"Yap1 mRNA, % UTC","Table 56, 62.5 nM, A-431 cells 10,000 cells per well, 48 hours",68 % UTC
same,"Yap1 mRNA, % UTC","Table 56, 4000.00 nM, A-431 cells 10,000 cells per well, 48 hours",17 % UTC
same,IC50,"Table 56, A-431 cells 10,000 cells per well",170 nM
958761 (kA*kG*kT*d[5mC]*dT*d[5mC]*dA*dA*d[5mC]*dA*dA*d[5mC]*d[5mC]*kT*kT*k[5mC]; antisense) [compound 958761],"Yap1 mRNA, % UTC",[1],84 % UTC
same,"Yap1 mRNA, % UTC",[2],73 % UTC
same,"Yap1 mRNA, % UTC",[3],24 % UTC
same,IC50,[4],200 nM
